Several values for one entry are separate records, joined by “and”; a condition that tells them apart may be missing. Identical values can stand only once. Values belong to the molecule of their own block, whether it stands above or below them.
What was measured:
rhPSMA [1] = molecular target: T1, rhPSMA (Homo sapiens (Human), UniProt Q04609); assay: Tests for inhibitory activity against PSMA (Test Example 1); format: biochemical; details: rhPSMA 50 ng/well, substrate N-Acetyl-Asp-Glu, 37° C. 1 h
Protocol: • 1. Multifunctional microplate reader (SPARK, TECAN) • 2. rhPSMA (R&D, 4234-ZN) • 3. N-Acetyl-Asp-Glu (Sigma, A5930) • 4. OPA (Sigma, P0657)
PSMA inhibitors can bind to the enzyme PSMA to prevent the enzyme PSMA from decomposing the substrate N-Acetyl-Asp-Glu. In this experiment, the extent to which the substrate was decomposed and the resulting ultraviolet absorption changes were measured to evaluate the capacities of the PSMA inhibitors to bind to the enzyme PSMA, and the activity of the compounds was evaluated with IC50 values.
(§1) Buffer 1 (50 mM HEPES, 0.1 M NaCl, pH 7.5) was used to prepare a 0.4 μg/mL rhPSMA solution and a 40 μM solution of the substrate N-Acetyl-Asp-Glu. rhPSMA was mixed with the small molecules to be tested in a 96-well plate, with a constant rhPSMA content of 50 ng/well maintained. Meanwhile, the small molecules were step-wise diluted to final concentrations of 1 μM, 100 nM, 33.3 nM, 11.1 nM, 3.7 nM, 1.2 nM, 0.41 nM, 0.137 nM, 0.045 nM, and 0 nM. In addition, a positive control was set up using PSMA-617. The rhPSMA-small molecules were taken at 40 μL/well and well mixed with the 40 μM solution of the substrate N-Acetyl-Asp-Glu (40 μL/well). The mixtures were incubated at 37° C. in the dark for 1 h, were heated at 70° C. for 5 min to quench the reactions, and were cooled to room temperature. Buffer 2 (0.2 M NaOH, 0.1% beta-Mercaptoethanol) was used to prepare a 15 mM OPA solution. The OPA solution was added to the reaction systems at 80 μL/well and well mixed, and then the plate was incubated at room temperature for 10 min. The mixtures were taken at 100 μL/well and added to a 96-well Flat Black. With the excitation wavelength set to 330 nm and the emission wavelength to 465 nm, the intensity of signals was measured. IC50 values were obtained from dose-response curves.
The capacities of the compounds of the present disclosure to bind to the enzyme GCPII can be measured through the assay described above.

rhPSMA [2] = molecular target: T1, rhPSMA; assay: Affinity assays using enzyme activity method (Test Example 2); format: biochemical
Protocol: as §1

LnCaP tumor = assay: Biodistribution of 68Ga-labeled compounds in LnCaP tumor-bearing mice; format: in vivo
Protocol: After single tail-vein injections into mice, the in-vivo distributions of ^68Ga-labeled compound v (Example 9) and compound x (Example 11) in the positive LnCaP tumor-bearing mice were observed.
At 2 h after the injection, a total of 3 animals were sacrificed by cervical dislocation, and tissue samples were collected, including samples of the blood, the heart, the lungs, the liver, the spleen, the kidneys, the stomach, the intestine, the bones, the flesh, the brain, the salivary gland, the large intestine, the pancreas, and the tumor. The net weight of the tissues was measured first, and the radioactivity counts of the collected tissues were then measured using a γ-counter. The distributions of the labeled compounds in the different tissues and organs of the mice were measured. Meanwhile, a test sample was accurately diluted 100-fold, and 0.1 mL of the dilution was added to a counting tube and used as standard 1% ID (i.e., one percent of the injected dose). The radioactivity counts of the 1% ID standard and the biological samples were measured simultaneously on a γ-counter. The biodistribution data were expressed as the percentage of the radioactivity counts per gram of tissue or organ to the total injected dose (radioactivity counts) (% ID/g).

[3] = Pharmacokinetics in blood of normal mice after single tail-vein injection; format: in vivo; details: for Blood % ID/g: normal mice, individual animals 1-4
Protocol: Through single tail-vein injections into mice, the pharmacokinetics of ^68Ga-v (Example 9) and PSMA-617 in blood was studied.
Each mouse was dosed at 50 μCi/100 μL, and blood samples were taken from the orbit 0.083, 0.25, 0.5, 1, 2, and 4 h post-dose (4 animals per time point). The blood samples were collected in pre-weighed sample tubes. The tubes were weighed and the weight of the blood samples was recorded. Then radioactivity counting was performed using a γ-counter. Meanwhile, a test sample was accurately diluted 100-fold, and 0.1 mL of the dilution was added to a counting tube and used as standard 1% ID (i.e., one percent of the injected dose). The radioactivity counts of the 1% ID standard and the biological samples were measured simultaneously on a γ-counter. The data on blood were expressed as the percentage of the radioactivity counts per gram of blood to the total injected dose (radioactivity counts) (% ID/g). Pharmacokinetic parameters were calculated from blood drug concentration data.

human organs = assay: Absorbed doses of radiation, estimates for human organs (OLINDA software)
Protocol: The AUC of drug metabolisms was calculated from the biodistribution (Bio-D) data and imported into the OLINDA software to generate doses of radiation absorbed by all the organs.

[4] = 2 h after injection, LnCaP tumor-bearing mice

T1 sequence (Q04609 44-750): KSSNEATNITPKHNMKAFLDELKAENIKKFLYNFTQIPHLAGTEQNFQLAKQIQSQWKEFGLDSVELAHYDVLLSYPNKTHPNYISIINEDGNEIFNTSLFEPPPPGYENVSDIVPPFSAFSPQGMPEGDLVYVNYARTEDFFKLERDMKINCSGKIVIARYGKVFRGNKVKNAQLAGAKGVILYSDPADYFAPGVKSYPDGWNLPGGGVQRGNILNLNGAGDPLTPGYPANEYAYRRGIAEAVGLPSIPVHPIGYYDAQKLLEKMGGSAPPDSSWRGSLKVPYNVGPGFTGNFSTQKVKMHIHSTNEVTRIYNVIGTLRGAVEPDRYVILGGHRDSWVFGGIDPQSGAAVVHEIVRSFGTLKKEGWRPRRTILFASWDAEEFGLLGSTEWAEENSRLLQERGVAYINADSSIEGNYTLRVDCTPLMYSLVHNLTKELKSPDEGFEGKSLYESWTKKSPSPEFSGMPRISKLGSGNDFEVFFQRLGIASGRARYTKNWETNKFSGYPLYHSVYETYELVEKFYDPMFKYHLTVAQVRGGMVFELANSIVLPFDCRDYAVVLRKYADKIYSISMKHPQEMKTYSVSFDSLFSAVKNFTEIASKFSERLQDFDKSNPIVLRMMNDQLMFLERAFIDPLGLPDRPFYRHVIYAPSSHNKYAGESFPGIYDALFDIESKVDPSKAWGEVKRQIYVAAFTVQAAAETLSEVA

IC50 (rhPSMA [1]): 2.36 nM | Ratio to PSMA-617 (rhPSMA [2]; ratio of IC50 values): 1.00 | IC50 (rhPSMA [2]; rhPSMA 50 ng/well, substrate N-Acetyl-Asp-Glu, 37° C. 1 h): 1.65 nM
SMILES: O=C(O)CC[C@H](NC(=O)N[C@@H](CCCCNC(=O)[C@H](Cc1ccc2ccccc2c1)NC(=O)[C@H]1CC[C@H](CNC(=O)CN2CCN(CC(=O)O)CCN(CC(=O)O)CCN(CC(=O)O)CC2)CC1)C(=O)O)C(=O)O [PSMA-617, reference compound]

IC50 (rhPSMA [1]): 178 nM
SMILES: N[C@@H](Cc1ccncc1)C(=O)NCCCC[C@H](NC(=O)N[C@@H](CCC(=O)O)C(=O)O)C(=O)O

IC50 (rhPSMA [1]): 4.13 nM
SMILES: O=C(O)CC[C@H](NC(=O)N[C@@H](CCCCNC(=O)[C@H](Cc1ccc2ccccc2c1)NC(=O)N1CCC(CNC(=O)CN2CCN(CC(=O)O)CCN(CC(=O)O)CCN(CC(=O)O)CC2)CC1)C(=O)O)C(=O)O

IC50 (rhPSMA [1]): 2.4 nM
SMILES: O=C(O)CC[C@H](NC(=O)N[C@@H](CCCCNC(=O)[C@H](Cc1ccc2ccccc2c1)NC(=O)C1CC12CCNCC2)C(=O)O)C(=O)O (some centres unmarked)

IC50 (rhPSMA [1]): 1.52 nM
SMILES: O=C(O)CC[C@H](NC(=O)N[C@@H](CCCCNC(=O)[C@H](Cc1ccc2ccccc2c1)NC(=O)[C@H]1CC[C@@]2(CC1)CN(C(=O)CN1CCN(CC(=O)O)CCN(CC(=O)O)CCN(CC(=O)O)CC1)CCO2)C(=O)O)C(=O)O [drawing 156]

targeting effect on the LnCap tumor (LnCaP tumor; [4]): good targeting effect on the LnCap tumor | tumor uptake, comparison in words (LnCaP tumor; [4]): better than ^68Ga-x (Example 11)'s | uptake values in the other tissues (LnCaP tumor; 2 h after injection, tissues other than tumor, kidneys, liver, lung, spleen): very low | uptake value in the LnCap tumor (LnCaP tumor; 2 h after single tail-vein injection, LnCaP tumor-bearing mice): ~10 Id %/g | time estimated using 5 effective half-lives ([3]; 5 effective half-lives): 2.27 h | content of the radioactive substance in the blood ([3]; 0.25 h after the injections, mean of n=4): 1.25±0.22 % ID/g | effective half-life Te ([3]; according to calculations): 27 min | elimination phase half-life ([3]; blood of mice): 45.5 min | half-life in the blood ([3]; blood of normal mice): 7.8 min | AUCINF_obs ([3]; blood of normal mice, 0-4 h): 1.66 ± 0.24 h* % ID/g | AUClast ([3]; blood of normal mice, 0-4 h): 1.67 ± 0.26 h* % ID/g | Cl_obs ([3]; blood of normal mice, 0-4 h): 12.17 ± 1.77 μCi/h* % ID/g | Cmax ([3]; blood of normal mice, 0-4 h): 5.06 ± 0.74 % ID/g | MRTlast ([3]; blood of normal mice, 0-4 h): 23.4 ± 1.2 min | Vz_obs ([3]; blood of normal mice, 0-4 h): 4.97 ± 1.09 μCi/% ID/g | t1/2 ([3]; blood of normal mice, 0-4 h): 7.8 min | t1/2 ([3]; blood of normal mice, 0-4 h, listed as 68Ga-V): 7.8 ± 2.4 min | time after dosing at which substantially metabolized ([3]; estimated as 5 times the half-life): 3.9 h | radiation dose estimate, Adrenals (human organs; human organ: Adrenals): 8.50E−03 mSv/MBq | radiation dose estimate, Brain (human organs; human organ: Brain): 3.99E−02 mSv/MBq | radiation dose estimate, Esophagus (human organs; human organ: Esophagus): 3.77E−03 mSv/MBq | radiation dose estimate, Eyes (human organs; human organ: Eyes): 1.84E−03 mSv/MBq | radiation dose estimate, Gallbladder Wall (human organs; human organ: Gallbladder Wall): 5.52E−03 mSv/MBq | radiation dose estimate, Heart Wall (human organs; human organ: Heart Wall): 1.62E−02 mSv/MBq | radiation dose estimate, Kidneys (human organs; human organ: Kidneys): 3.54E−02 mSv/MBq | radiation dose estimate, Left colon (human organs; human organ: Left colon): 6.87E−03 mSv/MBq | radiation dose estimate, Liver (human organs; human organ: Liver): 2.50E−02 mSv/MBq | radiation dose estimate, Lungs (human organs; human organ: Lungs): 1.05E−02 mSv/MBq | radiation dose estimate, Osteogenic Cells (human organs; human organ: Osteogenic Cells): 4.65E−03 mSv/MBq | radiation dose estimate, Pancreas (human organs; human organ: Pancreas): 9.51E−03 mSv/MBq | radiation dose estimate, Prostate (human organs; human organ: Prostate): 3.77E−03 mSv/MBq | radiation dose estimate, Rectum (human organs; human organ: Rectum): 1.99E−01 mSv/MBq | radiation dose estimate, Red Marrow (human organs; human organ: Red Marrow): 2.12E−03 mSv/MBq | radiation dose estimate, Right colon (human organs; human organ: Right colon): 3.43E−03 mSv/MBq | radiation dose estimate, Salivary Glands (human organs; human organ: Salivary Glands): 1.81E−03 mSv/MBq | radiation dose estimate, Small Intestine (human organs; human organ: Small Intestine): 1.31E−01 mSv/MBq | radiation dose estimate, Spleen (human organs; human organ: Spleen): 5.13E−02 mSv/MBq | radiation dose estimate, Stomach Wall (human organs; human organ: Stomach Wall): 8.54E−02 mSv/MBq | radiation dose estimate, Testes (human organs; human organ: Testes): 3.51E−04 mSv/MBq | radiation dose estimate, Thymus (human organs; human organ: Thymus): 1.99E−03 mSv/MBq | radiation dose estimate, Thyroid (human organs; human organ: Thyroid): 9.11E−04 mSv/MBq | radiation dose estimate, Urinary Bladder Wall (human organs; human organ: Urinary Bladder Wall): 2.27E−03 mSv/MBq | radiation dose estimate, Effective Dose (human organs; human: Effective Dose): 2.10E−02 mSv/MBq | radiation dose estimate, Total Body (human organs; human: Total Body): 0.496E−02 mSv/MBq
SMILES: O=C([O-])CN1CCN(CC(=O)[O-])CCN(CC(=O)N2CCO[C@]3(CC[C@H](C(=O)N[C@@H](Cc4ccc5ccccc5c4)C(=O)NCCCC[C@H](NC(=O)N[C@@H](CCC(=O)O)C(=O)O)C(=O)O)CC3)C2)CCN(CC(=O)[O-])CC1.[68Ga+3] [^68Ga-v]
Blood % ID/g ([3]; 0.083 h post-dose): 5.89 % ID/g and 4.98 % ID/g and 5.26 % ID/g and 4.11 % ID/g | Blood % ID/g ([3]; 0.25 h post-dose): 1.33 % ID/g and 1.11 % ID/g and 1.52 % ID/g and 1.03 % ID/g | Blood % ID/g ([3]; 0.5 h post-dose): 1.15 % ID/g and 0.52 % ID/g and 0.79 % ID/g and 0.99 % ID/g | Blood % ID/g ([3]; 1 h post-dose): 0.33 % ID/g and 0.19 % ID/g (2×) and 0.16 % ID/g | Blood % ID/g ([3]; 2 h post-dose): 0.07 % ID/g and 0.13 % ID/g and 0.10 % ID/g and 0.11 % ID/g | Blood % ID/g ([3]; 4 h post-dose): 0.06 % ID/g and 0.02 % ID/g and 0.10 % ID/g and 0.08 % ID/g | absorbed dose of radiation, comparison with the labeled PSMA-617 in words (human organs; from Table 5): half of that resulting from ^68Ga-PSMA-617

IC50 (rhPSMA [1]): 143 nM
SMILES: NCc1cnn([C@@H](Cc2ccccc2)C(=O)NCCCC[C@H](NC(=O)N[C@@H](CCC(=O)O)C(=O)O)C(=O)O)c1
